Test results from PubChem BioAssay (NCI).
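Exposure lasted 48 hours, with cells grown in 96-well plates and compounds tested at five concentrations. TGI marks complete inhibition of growth.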

What was measured:
Experiment in all cases: inhibition of tumour cell growth, NCI panel, 48 h
786-0 renal = system: 786-0 renal
A498 renal = system: A498 renal
A549 NSCLC = system: A549 NSCLC
BT-549 breast = system: BT-549 breast
CAKI-1 renal = system: CAKI-1 renal
CCRF-CEM leukemia = system: CCRF-CEM leukemia
COLO 205 colon = system: COLO 205 colon
DU-145 prostate = system: DU-145 prostate
EKVX NSCLC = system: EKVX NSCLC
HCT-116 colon = system: HCT-116 colon
HCT-15 colon = system: HCT-15 colon
HOP-62 NSCLC = system: HOP-62 NSCLC
HOP-92 NSCLC = system: HOP-92 NSCLC
HS 578T breast = system: HS 578T breast
HT29 colon = system: HT29 colon
IGROV1 ovarian = system: IGROV1 ovarian
K-562 leukemia = system: K-562 leukemia
KM12 colon = system: KM12 colon
LOX IMVI melanoma = system: LOX IMVI melanoma
M14 melanoma = system: M14 melanoma
MALME-3M melanoma = system: MALME-3M melanoma
MDA-MB-231 breast = system: MDA-MB-231 breast
MDA-MB-435 = system: MDA-MB-435
MDA-N = system: MDA-N
MOLT-4 leukemia = system: MOLT-4 leukemia
NCI-H226 lung = system: NCI-H226 lung
NCI-H23 lung = system: NCI-H23 lung
NCI-H522 lung = system: NCI-H522 lung
NCI/ADR-RES ovarian = system: NCI/ADR-RES ovarian
OVCAR-3 ovarian = system: OVCAR-3 ovarian
OVCAR-4 ovarian = system: OVCAR-4 ovarian
OVCAR-5 ovarian = system: OVCAR-5 ovarian
OVCAR-8 ovarian = system: OVCAR-8 ovarian
PC-3 prostate = system: PC-3 prostate
RPMI-8226 leukemia = system: RPMI-8226 leukemia
RXF 393 renal = system: RXF 393 renal
SF-268 CNS = system: SF-268 CNS
SF-295 CNS = system: SF-295 CNS
SK-MEL-2 melanoma = system: SK-MEL-2 melanoma
SK-MEL-28 melanoma = system: SK-MEL-28 melanoma
SK-MEL-5 melanoma = system: SK-MEL-5 melanoma
SK-OV-3 ovarian = system: SK-OV-3 ovarian
SN12C renal = system: SN12C renal
SNB-19 CNS = system: SNB-19 CNS
SNB-75 CNS = system: SNB-75 CNS
SW-620 colon = system: SW-620 colon
T-47D breast = system: T-47D breast
TK-10 renal = system: TK-10 renal
U251 CNS = system: U251 CNS
UACC-257 melanoma = system: UACC-257 melanoma
UACC-62 melanoma = system: UACC-62 melanoma
UO-31 renal = system: UO-31 renal
ACHN renal = system: ACHN renal
HCC-2998 colon = system: HCC-2998 colon
HL-60(TB) leukemia = system: HL-60(TB) leukemia
NCI-H460 lung = system: NCI-H460 lung
SF-539 CNS = system: SF-539 CNS
SR leukemia = system: SR leukemia
MCF7 breast = system: MCF7 breast

Measured: TGI

O=C1c2ccccc2-c2ccc(N=Nc3c(O)ccc4ccccc34)cc21
35 µM: CCRF-CEM leukemia
not listed: ACHN renal | HCC-2998 colon | HL-60(TB) leukemia | NCI-H460 lung | SF-539 CNS | SR leukemia | MCF7 breast
> 100 µM: all other assays above

Cn1nc(-c2ccccc2)nc1[N+](=O)[O-]
not listed: MCF7 breast
> 10 µM: all other assays above

O=c1cc(CBr)c2ccc(O)cc2o1
91.1 µM: EKVX NSCLC
77 µM: BT-549 breast
50.3 µM: HOP-62 NSCLC
not listed: HOP-92 NSCLC | OVCAR-4 ovarian | T-47D breast
> 100 µM: all other assays above
